The values below come from the Deep4Chem optical property database.

This data set can be described thus: solvent given as SMILES.

Take `O=c1oc2ccccc2cc1-c1ccc([N+](=O)[O-])cc1`: the absorption maximum (in C1CCOC1) is 331 nm, the absorption maximum (in CC#N) is reported as 336 nm, the absorption maximum (in CS(C)=O) is listed as 344 nm and the absorption maximum (in ClC(Cl)Cl) is given as 341 nm.
In the case of `CCOC(=O)CCOc1ccccc1C(c1c(C)[nH]c2ccccc12)c1c(C)[nH]c2ccccc12`, the absorption maximum amounted to 291 nm (in CO) and 290 nm (in O).
For `N#Cc1ccc(/C=C/C=C/C2=NC3C(=O)NC(N)=NC3N2[C@H]2C[C@H](O)[C@@H](CO)O2)cc1` (stereo partly drawn), the absorption maximum is reported as 395 nm (in C1COCCO1), 387 nm (in CC#N) and 381 nm (in CO).
For the compound `CN(C)c1ccc2nc(/C=C/c3cc4c5c(c3)CCCN5CCC4)c(=O)oc2c1`, the absorption maximum reads like this: (in C1CCCCC1) 487 nm; (in C1COCCO1) 495.5 nm; (in CC#N) 507.5 nm; (in CC(C)=O) 507 nm; (in CCCCCCC) 483 nm; (in CCO) 513 nm. Further, the absorption maximum by setting is: (in CCOC(C)=O) 501 nm; (in CN(C)C=O) 516 nm; (in CS(C)=O) 522.5 nm; (in Cc1ccccc1) 505.5 nm; (in ClC(Cl)Cl) 517 nm; (in ClCCl) 514.5 nm.
Turning to `CN(C)c1ccc(/C=C/c2cc[n+](CCCOCC(COCCC[n+]3ccc(/C=C/c4ccc(N(C)C)cc4)cc3)(COCCC[n+]3ccc(/C=C/c4ccc(N(C)C)cc4)cc3)COCCC[n+]3ccc(/C=C/c4ccc(N(C)C)cc4)cc3)cc2)cc1`, the absorption maximum by setting is: (in C1COCCO1) 460 nm; (in CC(C)O) 479 nm; (in CCCCCCCCO) 485 nm; (in CCCCO) 480 nm; (in CCCO) 482 nm; (in CCO) 484 nm. In addition, the absorption maximum came out at 486 nm (in CO), 479 nm (in CS(C)=O), 489 nm (in ClC(Cl)Cl) and 489 nm (in ClCCl).
`COc1ccc(N(c2ccc(OC)cc2)c2ccc(-c3ccc(C=C(C#N)C#N)o3)cc2)cc1` came in with an absorption maximum (in ClC(Cl)Cl) of 524 nm.
Regarding `c1ccc(-c2cc(-c3ccccc3)cc(-c3ccc4c(c3)C3(c5cc(-c6cc(-c7ccccc7)cc(-c7ccccc7)c6)ccc5-4)c4ccccc4-c4c3c3c5ccccc5ccc3c3ccccc43)c2)cc1`, for the setting “in C1CCOC1”, the absorption maximum is listed as 379 nm.
For the setting “in Cc1ccccc1”, `CC1(C)c2ccccc2N(c2ccc(-c3nc4c(C#N)ccc(C#N)c4nc3-c3ccc(N4c5ccccc5C(C)(C)c5ccccc54)cc3)cc2)c2ccccc21` registered an absorption maximum of 479 nm.
As to `CCCCCCCCCCCCN1C(=O)c2c(c3ccc4cc(-c5ccc(C#N)cc5)c(OC)cc4c3c3c2ccc2cc(-c4ccc(C#N)cc4)c(OC)cc23)C1=O`, where the note is “in ClCCl”, the absorption maximum came out at 427 nm.
With `CC(C)[Si](C#Cc1c2ccccc2c(C#Cc2c3ccccc3c(C#Cc3c4ccccc4c(C#Cc4c5ccccc5c(C#C[Si](C(C)C)(C(C)C)C(C)C)c5ccccc45)c4ccccc34)c3ccccc23)c2ccccc12)(C(C)C)C(C)C`, the absorption maximum (in Cc1ccccc1) was 582 nm.
In turn, `COc1ccc(C2=C/C(=C\c3ccccc3)C(=O)N2)cc1OC` showed an absorption maximum (in C1COCCO1) of 431 nm.
In the case of `COc1ccc(-c2csc(-c3ccncc3)n2)cc1`, the absorption maximum is 394 nm (in CC#N); 340 nm (in CCO); 340 nm (in CN(C)C=O); 341 nm (in CS(C)=O); 340 nm (in Cc1ccccc1); 401 nm (in ClCCl).
In the case of `c1ccc(-c2cc3c(oc4ccccc43)c(-c3ccccc3)[o+]2)cc1`, the absorption maximum reads like this: (in CC#N) 385 nm; (in ClCCCl) 395 nm.
In turn, `COc1ccc2c(c1)c1ccccc1n2-c1nc2ccccc2nc1-n1c2ccccc2c2cc(OC)ccc21` gave an absorption maximum (in Cc1ccccc1) of 423 nm.
Consider `COC(=O)c1nc2c(N)nc(N(C)C)nc2n1Cc1ccccc1`, for which the absorption maximum is, setting by setting: (in C1COCCO1) 340 nm; (in CC#N) 342 nm; (in CO) 345 nm; (in ClCCl) 338 nm.
The compound `N#Cc1c(-n2nnc3c2CCC2C(CC3)[C@@H]2CO)n([C@H]2C[C@H](O)[C@@H](CO)O2)c2ncnc(N)c12` (stereo partly drawn) registered an absorption maximum (in CO) of 287 nm.
`N#C/C(=C(/C#N)c1ccc(-c2ccncc2)cc1)c1ccc(-c2ccncc2)cc1` showed an absorption maximum (in ClCCl) of 343 nm.
Where the note is “in ClC(Cl)Cl”, `C(#Cc1ccccc1)C(C#Cc1ccccc1)=Cc1ccc(-c2ccc(C=C(C#Cc3ccccc3)C#Cc3ccccc3)cc2)cc1` yielded an absorption maximum of 394 nm.
For the setting “in ClCCl”, `COc1ccc2cc(C3=[N+]4C(=Nc5c(-c6ccc7ccccc7c6)cc(-c6ccc7cc(OC)ccc7c6)n5[B-]4(F)F)C(c4ccc5ccccc5c4)=C3)ccc2c1` showed an absorption maximum of 718 nm.
For `Cc1cc(-c2nc(-c3ccccc3)nc(-c3ccccc3)n2)c(C)cc1-c1ccc2c(c1)C1(c3ccccc3-c3ccccc31)c1ccccc1N2c1ccccc1`, the absorption maximum (in c1cc(-c2cccc(-n3c4ccccc4c4ccccc43)c2)cc(-n2c3ccccc3c3ccccc32)c1) worked out at 363.44 nm.
Where the note is “in C1CCCCC1”, `C[Si](C)(C)c1ccc([Si](C)(C)C)c2ccccc12` gave an absorption maximum of 300 nm.
For `CN(C)c1ccc(/C=C/C=C/c2nc3ccccc3o2)cc1`, the absorption maximum is, setting by setting: (in C1COCCO1) 411 nm; (in CC#N) 410 nm; (in CC(C)=O) 409 nm; (in CCCCCC) 401 nm; (in CCCCO) 417 nm; (in CCCO) 417 nm. The absorption maximum (in CCO) was 417 nm; the absorption maximum (in CN(C)C=O) is recorded as 419 nm; the absorption maximum (in CO) came out at 417 nm; the absorption maximum (in Cc1ccccc1) is recorded as 413 nm; the absorption maximum (in ClC(Cl)(Cl)Cl) is reported as 406 nm; the absorption maximum (in ClC(Cl)Cl) was determined as 414 nm. In addition, the absorption maximum is, setting by setting: (in ClCCl) 415 nm; (in OCC(O)CO) 424 nm; (in OCCO) 424 nm; (in c1ccccc1) 411 nm.
`Brc1ccc2cc3c4ccccc4nc(-c4ccco4)c3n2c1`: where the note is “in CS(C)=O”, the absorption maximum stood at 411 nm.
Still for that read-out and setting: then `COc1ccc(-c2c3nc(cc4ccc([nH]4)c(-c4ccc(OC)c(OCCCC(=O)O)c4)c4nc(cc5ccc2[nH]5)CC4)C=C3)cc1OCCCC(=O)O`, with 644 nm.
The compound `COc1c2ccccc2c(OC)c2c(C#C[Si](C(C)C)(C(C)C)C(C)C)c3cc4ccccc4cc3c(C#C[Si](C(C)C)(C(C)C)C(C)C)c12` returned an absorption maximum (in ClCCl) of 686 nm.
Regarding `Cc1cccc(C2=Cc3c4ccccc4c4ccccc4[n+]3[B-](F)(F)O2)c1`, under “in ClC(Cl)Cl”, the absorption maximum amounted to 434 nm.
As to `CCC1(CC)c2cc(-c3ccc(N(c4ccc(-c5ccc6c(c5)C(CC)(CC)c5cc(N7c8ccccc8C(C)(C)c8ccccc87)ccc5-6)cc4)c4ccc(-c5ccc6c(c5)C(CC)(CC)c5cc(N7c8ccccc8C(C)(C)c8ccccc87)ccc5-6)cc4)cc3)ccc2-c2ccc(N3c4ccccc4C(C)(C)c4ccccc43)cc21`, the absorption maximum (in ClC(Cl)Cl) stood at 366 nm.
`CCCCN(CCCC)c1ccc(C#Cc2cc(C#Cc3ccc(C#N)cc3)c(C#Cc3ccc(N(CCCC)CCCC)cc3)cc2C#Cc2ccc(C#N)cc2)cc1`: under “in ClCCl”, the absorption maximum stood at 454 nm.
The compound `CCCC1(CCC)c2cc(C=C(C#Cc3ccccc3)C#Cc3ccccc3)ccc2-c2ccc(C=C(C#Cc3ccccc3)C#Cc3ccccc3)cc21` showed an absorption maximum (in ClC(Cl)Cl) of 422 nm.
Turning to `O=C(NCc1cc(=O)oc2cc(O)c(Br)cc12)c1cccnc1`, the absorption maximum stood at 392 nm (in CC#N), 372 nm (in CO), 408 nm (in CS(C)=O) and 330 nm (in O).
Consider `O=C(c1ccccc1)c1cc2ccc1CCc1ccc(cc1-c1ccc(N(c3ccccc3)c3ccccc3)cc1)CC2`, for which the absorption maximum (in Cc1ccccc1) is reported as 311 nm.
As to `COC1=C/C(=C\C=C2C=CN(Cc3ccc(Br)cc3)C=C2)C=CC1=O`, the absorption maximum runs as follows: (in CC#N) 617 nm; (in CC(C)=O) 624 nm; (in CC(C)CO) 576 nm; (in CC(C)O) 585 nm; (in CCC#N) 620 nm; (in CCCCCCO) 584 nm. Also, the absorption maximum is listed as 588 nm (in CCCCCO); 576 nm (in CCCCO); 577 nm (in CCCO); 568 nm (in CCO); 621 nm (in CN(C)C=O); 629 nm (in CN(C)P(=O)(N(C)C)N(C)C). Besides, the absorption maximum by setting is: (in CO) 537 nm; (in CS(C)=O) 619 nm.
In the case of `C(#Cc1cc2ccc3cc(C#Cc4ccccc4)cc4ccc(c1)c2c34)c1ccccc1`, where the note is “in Cc1ccccc1”, the absorption maximum is on record as 410 nm.
Take `CN(C)c1ccc(-c2nc(-c3ccccc3)n3ccccc23)cc1`: under “in ClC(Cl)Cl”, the absorption maximum worked out at 314 nm.
On to `CC1(C)Nc2cc3nc4cc(F)c(F)cc4nc3cc2N1`, for which the absorption maximum (in CCO) amounted to 440 nm.
In the case of `COC(=O)C1=C(C(=O)OC)[Se](=O)[C@]23C1=C[C@H](c1ccccc12)c1ccccc13` (stereo partly drawn), the absorption maximum (in ClCCl) turned out to be 341 nm.
Take `CCCN1C(=O)C(=CC=CC=C2Oc3ccccc3N2CCCS(=O)(=O)[O-])C(=O)N(CCC)C1=S`: the absorption maximum is 565 nm (in C1COCCO1); 559 nm (in CC(C)=O); 562 nm (in CCCCO); 561 nm (in CCCO); 558 nm (in CCO); 554 nm (in CO). In addition, the absorption maximum is, setting by setting: (in ClC(Cl)Cl) 568 nm; (in O) 530 nm.
`CCCCCCN(CCCCCC)c1ccc(C#Cc2ccc(C#N)cc2)cc1`: the absorption maximum amounted to 379 nm (in CC#N), 378 nm (in CO) and 385 nm (in ClCCl).
